Measurements published in ChEMBL document CHEMBL5465560, “Selectivity Literature for EUbOPEN Chemogenomic Library” (2024).

Legend:
[1] = target: Glycogen synthase kinase-3 alpha (Homo sapiens, UniProt P49840); test: Selectivity interaction (KinomeScan (DiscoverX)) EUB0001079a GSK3A; conditions: at 1 µM
[2] = target: Mitogen-activated protein kinase 6 (Homo sapiens) (UniProt Q16659); test: Selectivity interaction (KinomeScan (DiscoverX)) EUB0001079a MAPK6; conditions: at 1 µM
[3] = target: T1, Mitogen-activated protein kinase kinase kinase 15 (Homo sapiens) (UniProt Q6ZN16); conditions: at 10 µM
T1 sequence (whole entry): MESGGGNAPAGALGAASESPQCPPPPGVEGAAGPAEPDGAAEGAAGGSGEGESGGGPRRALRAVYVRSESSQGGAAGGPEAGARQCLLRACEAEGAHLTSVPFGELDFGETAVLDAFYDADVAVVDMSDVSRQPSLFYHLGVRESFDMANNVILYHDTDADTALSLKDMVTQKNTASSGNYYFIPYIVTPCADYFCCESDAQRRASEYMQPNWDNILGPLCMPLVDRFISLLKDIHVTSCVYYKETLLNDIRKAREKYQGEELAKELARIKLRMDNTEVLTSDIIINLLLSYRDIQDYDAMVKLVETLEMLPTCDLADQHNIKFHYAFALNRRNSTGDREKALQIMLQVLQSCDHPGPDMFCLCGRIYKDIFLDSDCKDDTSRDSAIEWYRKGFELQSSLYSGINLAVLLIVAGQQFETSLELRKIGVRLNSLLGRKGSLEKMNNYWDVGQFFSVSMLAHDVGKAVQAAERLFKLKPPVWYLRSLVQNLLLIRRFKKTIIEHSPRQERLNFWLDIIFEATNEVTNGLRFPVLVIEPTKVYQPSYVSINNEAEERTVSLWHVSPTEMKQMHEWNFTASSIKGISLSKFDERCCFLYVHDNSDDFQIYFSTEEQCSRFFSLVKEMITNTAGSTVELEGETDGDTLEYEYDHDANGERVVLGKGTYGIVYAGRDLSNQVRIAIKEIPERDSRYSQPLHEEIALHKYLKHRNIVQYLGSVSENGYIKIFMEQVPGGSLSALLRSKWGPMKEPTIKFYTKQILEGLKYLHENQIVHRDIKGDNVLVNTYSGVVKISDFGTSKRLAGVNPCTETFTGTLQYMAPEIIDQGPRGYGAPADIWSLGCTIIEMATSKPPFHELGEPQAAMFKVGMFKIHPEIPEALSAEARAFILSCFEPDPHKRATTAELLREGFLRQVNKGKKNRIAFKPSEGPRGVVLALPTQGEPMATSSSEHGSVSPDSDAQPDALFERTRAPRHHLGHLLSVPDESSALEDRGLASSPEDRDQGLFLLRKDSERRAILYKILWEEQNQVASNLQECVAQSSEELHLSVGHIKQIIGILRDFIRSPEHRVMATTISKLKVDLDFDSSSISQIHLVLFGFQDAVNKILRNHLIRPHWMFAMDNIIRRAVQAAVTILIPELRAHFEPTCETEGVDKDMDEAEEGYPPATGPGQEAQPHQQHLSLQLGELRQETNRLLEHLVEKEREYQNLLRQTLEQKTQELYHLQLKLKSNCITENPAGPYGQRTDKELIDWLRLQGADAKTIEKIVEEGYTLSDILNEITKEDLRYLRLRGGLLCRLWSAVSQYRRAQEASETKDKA

[4] = target: Mu-type opioid receptor (Homo sapiens, UniProt P35372); test: Selectivity interaction (Panel of kinases, GPCRs, ion channels and transporters (enzymatic assay)) EUB0000223bCl OPRM1
[5] = target: T2, Serine/threonine-protein kinase Nek2 (Homo sapiens) (UniProt P51955); test: Selectivity interaction (KinomeScan (DiscoverX)) EUB0000607a NEK2; conditions: at 10 µM
T2 sequence (whole entry): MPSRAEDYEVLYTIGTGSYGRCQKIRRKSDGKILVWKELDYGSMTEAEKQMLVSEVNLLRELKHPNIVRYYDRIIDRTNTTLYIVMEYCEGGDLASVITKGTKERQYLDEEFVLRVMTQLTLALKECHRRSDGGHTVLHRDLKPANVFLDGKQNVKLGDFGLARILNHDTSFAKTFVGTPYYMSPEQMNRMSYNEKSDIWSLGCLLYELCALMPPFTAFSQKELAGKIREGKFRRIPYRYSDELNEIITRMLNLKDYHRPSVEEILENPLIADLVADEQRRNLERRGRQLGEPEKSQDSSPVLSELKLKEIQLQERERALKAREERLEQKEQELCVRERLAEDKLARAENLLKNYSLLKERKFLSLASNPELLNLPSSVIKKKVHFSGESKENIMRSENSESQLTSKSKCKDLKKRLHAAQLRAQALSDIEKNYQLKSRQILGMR

[6] = target: T3, Serine/threonine-protein kinase tousled-like 1 (Homo sapiens) (UniProt Q9UKI8); test: Selectivity interaction (ActivX KiNativ screen (kinase selectivity in THP-1 cell lysates)) EUB0000639a TLK1; type: subcellular; conditions: lysate, at 0.01 µM
T3 sequence (whole entry): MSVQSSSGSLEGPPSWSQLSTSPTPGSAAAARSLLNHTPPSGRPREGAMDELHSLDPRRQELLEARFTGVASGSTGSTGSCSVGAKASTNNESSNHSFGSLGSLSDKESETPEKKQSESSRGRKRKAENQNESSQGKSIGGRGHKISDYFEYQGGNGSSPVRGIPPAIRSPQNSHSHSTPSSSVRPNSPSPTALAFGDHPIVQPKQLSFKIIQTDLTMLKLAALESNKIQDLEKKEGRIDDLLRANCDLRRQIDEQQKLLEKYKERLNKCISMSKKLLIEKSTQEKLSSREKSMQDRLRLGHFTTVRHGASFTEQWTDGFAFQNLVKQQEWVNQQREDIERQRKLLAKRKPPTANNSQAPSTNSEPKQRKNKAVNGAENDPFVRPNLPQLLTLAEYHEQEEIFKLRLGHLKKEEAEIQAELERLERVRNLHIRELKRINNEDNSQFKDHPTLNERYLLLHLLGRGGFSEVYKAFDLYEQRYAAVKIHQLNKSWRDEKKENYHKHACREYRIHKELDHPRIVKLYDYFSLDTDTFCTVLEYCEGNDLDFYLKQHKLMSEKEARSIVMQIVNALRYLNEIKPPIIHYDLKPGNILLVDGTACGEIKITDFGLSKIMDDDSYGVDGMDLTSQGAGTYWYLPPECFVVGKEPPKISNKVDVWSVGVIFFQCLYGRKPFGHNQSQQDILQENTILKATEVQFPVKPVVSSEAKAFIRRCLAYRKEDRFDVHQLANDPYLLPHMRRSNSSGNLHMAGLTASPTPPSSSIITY

[7] = Selectivity interaction (Ambit KINOMEscan and KiNATiv profiling in Jurkat cells) EUB0000090b CDK2H; conditions: Selectivity number of off-targets 9; Selectivity number of targets 456; Source Knowledge https://www.nature.com/articles/nchembio.2166; at 1 µM

Mitogen-activated protein kinase 6 (Homo sapiens), sequence (Q16659 whole entry): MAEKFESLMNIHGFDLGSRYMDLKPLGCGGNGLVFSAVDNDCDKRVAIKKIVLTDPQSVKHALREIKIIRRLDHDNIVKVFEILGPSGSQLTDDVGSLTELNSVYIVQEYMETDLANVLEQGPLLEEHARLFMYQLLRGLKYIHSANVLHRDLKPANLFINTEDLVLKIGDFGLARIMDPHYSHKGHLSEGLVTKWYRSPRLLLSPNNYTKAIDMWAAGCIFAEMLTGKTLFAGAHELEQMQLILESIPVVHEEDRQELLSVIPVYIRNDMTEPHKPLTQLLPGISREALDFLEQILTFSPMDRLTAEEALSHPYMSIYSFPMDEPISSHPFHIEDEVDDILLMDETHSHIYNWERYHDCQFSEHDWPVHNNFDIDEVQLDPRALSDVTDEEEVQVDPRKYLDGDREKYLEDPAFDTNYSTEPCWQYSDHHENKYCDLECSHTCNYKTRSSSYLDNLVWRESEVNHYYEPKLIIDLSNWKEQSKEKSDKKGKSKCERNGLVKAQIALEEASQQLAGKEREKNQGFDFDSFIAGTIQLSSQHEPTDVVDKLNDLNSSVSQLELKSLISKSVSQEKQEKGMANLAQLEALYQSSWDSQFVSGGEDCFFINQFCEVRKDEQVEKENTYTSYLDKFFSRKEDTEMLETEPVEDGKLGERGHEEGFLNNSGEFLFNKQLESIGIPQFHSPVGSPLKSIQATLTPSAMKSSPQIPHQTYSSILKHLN
Glycogen synthase kinase-3 alpha, sequence (P49840 2-483 limits assumed): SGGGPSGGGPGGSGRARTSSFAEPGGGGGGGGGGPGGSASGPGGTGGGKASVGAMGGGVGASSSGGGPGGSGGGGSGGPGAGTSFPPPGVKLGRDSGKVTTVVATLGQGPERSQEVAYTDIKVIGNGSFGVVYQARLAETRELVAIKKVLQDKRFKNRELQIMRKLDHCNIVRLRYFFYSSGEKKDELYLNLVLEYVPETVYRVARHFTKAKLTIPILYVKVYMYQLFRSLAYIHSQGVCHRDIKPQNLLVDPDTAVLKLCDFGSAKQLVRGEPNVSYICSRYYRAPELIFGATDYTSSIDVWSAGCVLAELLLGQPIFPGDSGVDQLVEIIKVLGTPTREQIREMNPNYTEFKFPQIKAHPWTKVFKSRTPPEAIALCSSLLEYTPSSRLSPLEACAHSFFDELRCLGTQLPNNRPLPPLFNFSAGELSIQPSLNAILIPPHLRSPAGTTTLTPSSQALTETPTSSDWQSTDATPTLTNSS
Mu-type opioid receptor, sequence (P35372 whole entry): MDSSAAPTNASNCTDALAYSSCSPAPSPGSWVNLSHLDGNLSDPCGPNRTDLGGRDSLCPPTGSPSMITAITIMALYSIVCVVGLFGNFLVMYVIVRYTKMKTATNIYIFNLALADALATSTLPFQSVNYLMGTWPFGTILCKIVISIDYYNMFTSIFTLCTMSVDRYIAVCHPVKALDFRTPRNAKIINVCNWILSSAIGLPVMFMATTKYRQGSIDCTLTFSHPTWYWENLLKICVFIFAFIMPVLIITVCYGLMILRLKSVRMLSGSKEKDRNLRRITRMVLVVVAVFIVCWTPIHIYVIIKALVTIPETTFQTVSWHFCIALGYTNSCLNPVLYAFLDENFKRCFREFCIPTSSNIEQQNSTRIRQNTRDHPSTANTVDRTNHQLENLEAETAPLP

SMILES: Nc1cnc(N2CCc3cc(S(=O)(=O)Nc4c(F)cc(Cl)cc4F)cc(N4CCCC4=O)c32)nc1 [TP-020n]
- % of control [1]: 100%
- % of control [2]: 100%

SMILES: Cc1cc([C@@H](C)Nc2ccccc2C(=O)O)c2nc(N3CCOCC3)cc(=O)n2c1 [AZD-6482]
- % of control [3]: 87%

SMILES: COc1cc(C(=O)N2CC[C@@H](O)[C@@H](N)C2)cc2nc(-c3cc4ccccc4n3CC3CC3)n(C)c12
- pXC50 [4]: < 4 M

SMILES: CNC(=O)Nc1ccc(-c2nc(N3CC4CCC(C3)O4)c3cnn(C4CCC5(CC4)OCCO5)c3n2)cc1
- % of control [5]: 72%

SMILES: CC[C@@H]1[C@H](F)C(=O)N[C@@H]1COc1nccc2cc(C(N)=O)c(OC)cc12 [ZIMLOVISERTIB]
- % of inhibition [6]: 1.9%

SMILES: CN(C)C/C=C/C(=O)Nc1ccc(C(=O)N2CCCC(Nc3ncc(Cl)c(-c4c[nH]c5ccccc45)n3)C2)cc1 (configuration not stated)
- % of control [7]: 100%
